Patent US7728043B2, “Methods for treatment of beta-amyloid protein-induced ocular disease” (priority 1999, dated 2010)

Tests used:
[1] = system: cells treated with βA peptide; test: Protection of cells from βA peptide insult, statements in words (MTT assay, cells not singled out); type: cell-based; conditions: MTT reduction assay; PC12, IMR32, HUVEC cells where named in the sentence
Method: (§1) The degree of βA insult was measured by 3-[4,5-dimethylthiazol-2-yl]-2,5-diphenyltetrazolium bromide (MTT) reduction assay. […] The detection of cell growth or cell death can be determined by observing the conversion of MTT to the colored product, MTT formazan, the concentration of which can be measured […] at 550 nm.
(§2) Cells were incubated in MTT solution (5 mg/ml) at 37° C. for 2 hours. During this time, cells were observed under a microscope every 15 min. Cells were incubated in Lysing buffer (100 μl) overnight at 37° C. Colorimetric determination of MTT reduction was made at 550 nm.

HUVEC cells = test: MTT reduction assay, βA peptide-induced toxicity, HUVEC cells; type: cell-based, human; conditions: for Anti-βA peptide(1-42) ED50 HUVEC / Anti-βA peptide(25-35) ED50 HUVEC: Table 4, ginkgo compounds
Method: as §1, §2
(§3) PC12 rat pheochromocytoma and IMR32 human neuroblastoma cells were obtained from the American Type Culture Collection (ATCC). HUVEC normal umbilical human vein endothelial cells were obtained from Clonetics (San Diego, Calif.). Cells were routinely cultured on a tissue culture plate (Corning, N.Y., N.Y.). PC12 cells were grown in high glucose Dulbecco's Modified Eagle Medium (DMEM), 10% horse serum, 5% fetal calf serum, and 1% penicillin/streptomycin. IMR32 cells were grown in 90% DMEM and 10% fetal calf serum with 1% penicillin/streptomycin. HUVEC cells were grown in EGM-2 Bullet Kit (Clonetics, San Diego, Calif.).

IMR32 cells = test: MTT reduction assay, βA peptide-induced toxicity, IMR32 cells; type: cell-based, human; conditions: for Anti-βA peptide(1-42) ED50 IMR32 / Anti-βA peptide(25-35) ED50 IMR32: Table 4, ginkgo compounds; for ED50 of βA peptide toxicity to IMR32 cells: peptide alone
Method: as §1, §2, §3

PC12 cells = test: MTT reduction assay, βA peptide-induced toxicity, PC12 cells; type: cell-based, rat; conditions: for Anti-βA peptide(1-42) ED50 PC12 / Anti-βA peptide(25-35) ED50 PC12: Table 4, ginkgo compounds; for Protection of PC12 cells from βA peptide insults (control study): even at 200 μg/ml, βA peptide(25-35) and βA peptide(1-42); for ED50 of βA peptide toxicity to PC12 cells: peptide alone, collagen-coated 96-well plates
Method: as §1, §2, §3
PC12 cells were cultured routinely on polystyrene-coated Corning tissue culture plates. […] The 96-well plates were coated with rat tail collagen (Boehringer Mannheim) in order to promote uniform PC12 cell attachment and growth.

Compound | Protection of cells from βA peptide-induced toxicity, in words [1] | Anti-βA peptide(1-42) ED50 HUVEC (HUVEC cells) | Anti-βA peptide(25-35) ED50 HUVEC (HUVEC cells) | Anti-βA peptide(1-42) ED50 IMR32 (IMR32 cells) | Anti-βA peptide(25-35) ED50 IMR32 (IMR32 cells) | Anti-βA peptide(1-42) ED50 PC12 (PC12 cells) | Anti-βA peptide(25-35) ED50 PC12 (PC12 cells) | Protection of PC12 cells from βA peptide insults (control study) (PC12 cells) | further results
CCCCCCCCC=CC(=O)CCc1ccc(O)cc1 [Compound 50, [9]-demethoxyshogaol] | effectively protected | – | – | – | – | – | – | – | –
C[C@@H]1C(=O)O[C@H]2C[C@@]34[C@H]5C[C@@H](C(C)(C)C)[C@]36[C@@H](OC(=O)[C@@H]6O)O[C@@]4(C(=O)O5)[C@]21O [Ginkgolide A, reference compound] | do not possess biological activity | toxic | toxic | toxic | toxic | toxic | toxic | – | –
CC1C(=O)OC2C(O)C34C5CC(C(C)(C)C)C36C(OC(=O)C6O)OC4(C(=O)O5)C12O (centres unmarked) [Ginkgolide B, reference compound] | do not possess biological activity | toxic | toxic | toxic | toxic | toxic | toxic | – | –
O=c1c(O)c(-c2ccc(O)c(O)c2)oc2cc(O)cc(O)c12 [Quercetin, reference compound] | do not possess biological activity | >20 µg/mL | >20 µg/mL | >20 µg/mL | >20 µg/mL | >20 µg/mL | >20 µg/mL | – | –
CC1=C(/C=C/C(C)=C/C=C/C(C)=C/CO)C(C)(C)CCC1 [vitamin A, reference compound] | – | – | – | – | – | – | – | did not protect | –
O=C1O[C@H]([C@@H](O)CO)C(O)=C1O [vitamin C, reference compound] | – | – | – | – | – | – | – | did not protect | –
Cc1c(C)c2c(c(C)c1O)CCC(C)(CCCC(C)CCCC(C)CCCC(C)C)O2 (centres unmarked) [vitamin E, reference compound] | – | – | – | – | – | – | – | did not protect | –
CC1=C(/C=C/C(C)=C/C=C/C(C)=C/C=C/C=C(C)/C=C/C=C(C)/C=C/C2=C(C)CCCC2(C)C)C(C)(C)CCC1 [β-carotene, reference compound] | – | – | – | – | – | – | – | did not protect | –
Ginkgolide C [reference compound] | do not possess biological activity | toxic | toxic | toxic | toxic | toxic | toxic | – | –
βA peptide (1-42): beta-amyloid peptide 1-42 used as the toxic insult [reference compound] | – | – | – | – | – | – | – | – | ED50 of βA peptide toxicity to IMR32 cells (IMR32 cells): 6.0 µg/mL; ED50 of βA peptide toxicity to PC12 cells (PC12 cells): 5.0 µg/mL
βA peptide (25-35): beta-amyloid peptide fragment 25-35 used as the toxic insult (GSNKGAIIGLM; Amyloid-beta protein 42; UniProt P05067 696-706, looked up, fragment) [reference compound] | – | – | – | – | – | – | – | – | ED50 of βA peptide toxicity to HUVEC cells (HUVEC cells; peptide alone): 6.0 µg/mL; ED50 of βA peptide toxicity to IMR32 cells (IMR32 cells): 3.0 µg/mL; ED50 of βA peptide toxicity to PC12 cells (PC12 cells): 1.0 µg/mL
